Reference: publication PMC3199943, “Screening the MayBridge Rule of 3 Fragment Library for Compounds That Interact with the Trypanosoma brucei myo-Inositol-3-Phosphate Synthase and/or Show Trypanocidal Activity” (Molecular Biology International, 2011)

Each compound was assayed against T1, TbINO1 (Trypanosoma brucei brucei, UniProt Q5QQ46) (assay: biochemical). Details: Supplementary Table 1; compound 1mM; mean ± SD from Boltzman curve fitting.
T1 sequence (Q5QQ46 1-528): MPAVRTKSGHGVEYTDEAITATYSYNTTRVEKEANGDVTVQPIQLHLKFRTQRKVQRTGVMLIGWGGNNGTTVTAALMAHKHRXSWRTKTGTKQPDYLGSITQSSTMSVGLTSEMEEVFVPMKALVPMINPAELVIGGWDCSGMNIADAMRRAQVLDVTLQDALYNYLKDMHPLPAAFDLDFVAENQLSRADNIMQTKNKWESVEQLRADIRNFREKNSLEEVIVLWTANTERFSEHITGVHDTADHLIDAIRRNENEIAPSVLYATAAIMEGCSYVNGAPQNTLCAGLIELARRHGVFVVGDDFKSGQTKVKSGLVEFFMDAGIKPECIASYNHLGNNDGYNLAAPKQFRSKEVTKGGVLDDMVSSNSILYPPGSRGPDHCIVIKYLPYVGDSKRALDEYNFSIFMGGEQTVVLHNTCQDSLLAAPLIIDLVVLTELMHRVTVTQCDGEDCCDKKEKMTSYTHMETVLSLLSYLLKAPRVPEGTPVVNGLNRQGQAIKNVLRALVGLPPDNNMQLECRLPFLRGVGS
Assay type: binding
`CCOC(=O)c1c(N)sc(C)c1C` [compound 617, ethyl 2‐amino‐4,5‐dimethylthiophene‐3‐carboxylate] was tested, and the “Tb Ino1 Tm Shift [˚C]” value was 1.47 ± 0.07 °C. With `CNCc1cc(-c2ccccc2)nn1C` [compound 631, N‐methyl‐N‐[(1‐methyl‐3‐phenyl‐1H‐pyrazol‐5‐yl)methyl]amine] the “Tb Ino1 Tm Shift [˚C]” value was 0.5 ± 0.08 °C. For `COC(=O)c1cccc(CN)c1.Cl` [compound 632, 3‐Aminomethylbenzoic acid methyl ester hydrochloride], the “Tb Ino1 Tm Shift [˚C]” value was 0.22 ± 0.07 °C. `N#CCOc1ccc(C(F)(F)F)cn1` [compound 634, 2‐{[5‐(trifluoromethyl)‐2‐pyridyl]oxy}acetonitrile] was tested, and the “Tb Ino1 Tm Shift [˚C]” value was 0.24 ± 0.09 °C. `CNCc1c(-c2ccccc2)noc1C` [compound 637, N‐methyl‐N‐[(5‐methyl‐3‐phenylisoxazol‐4‐yl)methyl]amine] was tested, and the “Tb Ino1 Tm Shift [˚C]” value was 0.02 ± 0.07 °C. For `Cc1cc(C(=O)O)c2cc(F)ccc2n1` [compound 660, 6‐fluoro‐2‐methyl‐4‐quinolinecarboxylic acid], the “Tb Ino1 Tm Shift [˚C]” value was 0.5 ± 0.06 °C. In the case of `Cc1nc(-c2ccccc2)c(CO)s1` [compound 666, (2‐methyl‐4‐phenyl‐1,3‐thiazol‐5‐yl)methanol], the “Tb Ino1 Tm Shift [˚C]” value is reported as 0.08 ± 0.05 °C. For `Cc1nc(-c2ccc(CO)cc2)cs1` [compound 667, [4‐(2‐methyl‐1,3‐thiazol‐4‐yl)phenyl]methanol], the “Tb Ino1 Tm Shift [˚C]” value was 0.4 ± 0.07 °C. For “(Piperidino‐3‐pyridinyl)methanol [compound 569]”, the “Tb Ino1 Tm Shift [˚C]” value was 0.35 ± 0.07 °C.

Same assay, conditions: Supplementary Table 1; compound 1mM; mean ± SD from Boltzman curve fitting; read-out: Tb Ino1 Tm Shift [˚C]
`CNCc1ccccc1-c1cccs1` [compound 646, N‐methyl‐N‐(2‐thien‐2‐ylbenzyl)amine] was tested, and the ΔTm at 1000 µM was 0.1 ± 0.05 °C. Compound `CN1CCN(Cc2ccccc2N)CC1` [compound 670, 2‐[(4‐methylpiperazin‐1‐yl)methyl]aniline] has a ΔTm at 1000 µM of 0.05 ± 0.07 °C.

Same assay, conditions: read-out: Tb Ino1 Tm Shift [˚C]
With `CNCc1cccc(-c2cccnc2)c1` [compound 606, N‐methyl‐N‐(3‐pyridin‐3‐ylbenzyl)amine] the ΔTm at 1000 µM was 0.07 ± 0.08 °C. `CNCc1ccc(-c2ccccn2)cc1` [compound 607, N‐methyl‐N‐(4‐pyridin‐2‐ylbenzyl)amine] gave a ΔTm at 1000 µM of 0.02 ± 0.06 °C. Work on `O=C(O)c1ccc(-c2ccccc2)nc1` [compound 610, 6‐phenylnicotinic acid] yielded a ΔTm at 1000 µM of 0.46 ± 0.06 °C. `O=C(O)c1cccc(-c2ccccn2)c1` [compound 611, 3‐pyrid‐2‐ylbenzoic acid] was tested, and the ΔTm at 1000 µM was 0.19 ± 0.07 °C. Work on `O=C(O)c1ccccc1-c1cccnc1` [compound 613, 2‐pyrid‐3‐ylbenzoic acid] yielded a ΔTm at 1000 µM of 0.14 ± 0.07 °C.

What follows are compounds tested on HeLa cells (assay: cells). Details: Homo sapiens, HeLa, 65 h, read-out: HeLa Cells Alamar Blue.
How it was run: (§1)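 Viability by Alamar Blue (5 h) after ~65 h drug treatment; seeding density 2 × 10^4 cells/well in DMEM supplemented with 10% FCS and 2 mM L-Glutamine.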
In the case of `CNCc1cccc(-c2cccnc2)c1` [compound 606, N‐methyl‐N‐(3‐pyridin‐3‐ylbenzyl)amine], the viability at 500 µM is reported as 70.8 ± 5.8%. `CNCc1ccc(-c2ccccn2)cc1` [compound 607, N‐methyl‐N‐(4‐pyridin‐2‐ylbenzyl)amine] showed a viability at 500 µM of 57.7 ± 17.1%. For `O=C(O)c1ccc(-c2ccccc2)nc1` [compound 610, 6‐phenylnicotinic acid], the viability at 500 µM was 82.3 ± 8.2%. Work on `O=C(O)c1cccc(-c2ccccn2)c1` [compound 611, 3‐pyrid‐2‐ylbenzoic acid] yielded a viability at 500 µM of 87 ± 12.6%. In the case of `O=C(O)c1ccccc1-c1cccnc1` [compound 613, 2‐pyrid‐3‐ylbenzoic acid], the viability at 500 µM is reported as 80 ± 5.6%. In the case of `CN1CCN(Cc2ccccc2N)CC1` [compound 670, 2‐[(4‐methylpiperazin‐1‐yl)methyl]aniline], the viability at 500 µM is reported as 94.6 ± 8.5%.

Same assay, conditions: Homo sapiens, HeLa, 65 h, read-out: HeLa Cells Alamar Blue, Supplementary Table 1; compound 0.5 mM; percentage of controls; mean ± SD (n=3) or SE (n=2)
In the case of `CNCc1ccccc1-c1cccs1` [compound 646, N‐methyl‐N‐(2‐thien‐2‐ylbenzyl)amine], the viability at 500 µM is reported as 36.5 ± 9.5%.

Same assay, conditions: Supplementary Table 1; compound 0.5 mM; percentage of controls; mean ± SD (n=3) or SE (n=2)
In the case of `CCOC(=O)c1c(N)sc(C)c1C` [compound 617, ethyl 2‐amino‐4,5‐dimethylthiophene‐3‐carboxylate], the “HeLa Cells Alamar Blue” value is reported as 69.1 ± 9.3 percentage of controls. With `CNCc1cc(-c2ccccc2)nn1C` [compound 631, N‐methyl‐N‐[(1‐methyl‐3‐phenyl‐1H‐pyrazol‐5‐yl)methyl]amine] the “HeLa Cells Alamar Blue” value was 66.2 ± 16.3 percentage of controls. With `COC(=O)c1cccc(CN)c1.Cl` [compound 632, 3‐Aminomethylbenzoic acid methyl ester hydrochloride] the “HeLa Cells Alamar Blue” value was 44.8 ± 10.2 percentage of controls. With `N#CCOc1ccc(C(F)(F)F)cn1` [compound 634, 2‐{[5‐(trifluoromethyl)‐2‐pyridyl]oxy}acetonitrile] the “HeLa Cells Alamar Blue” value was 73.3 ± 1.6 percentage of controls. For `CNCc1c(-c2ccccc2)noc1C` [compound 637, N‐methyl‐N‐[(5‐methyl‐3‐phenylisoxazol‐4‐yl)methyl]amine], the “HeLa Cells Alamar Blue” value was 79.8 ± 7.5 percentage of controls. `Cc1cc(C(=O)O)c2cc(F)ccc2n1` [compound 660, 6‐fluoro‐2‐methyl‐4‐quinolinecarboxylic acid] was tested, and the “HeLa Cells Alamar Blue” value was 103 ± 3.9 percentage of controls. For `Cc1nc(-c2ccccc2)c(CO)s1` [compound 666, (2‐methyl‐4‐phenyl‐1,3‐thiazol‐5‐yl)methanol], the “HeLa Cells Alamar Blue” value was 95.3 ± 5 percentage of controls. For `Cc1nc(-c2ccc(CO)cc2)cs1` [compound 667, [4‐(2‐methyl‐1,3‐thiazol‐4‐yl)phenyl]methanol], the “HeLa Cells Alamar Blue” value was 76.7 ± 4.3 percentage of controls. “(Piperidino‐3‐pyridinyl)methanol [compound 569]” was tested, and the “HeLa Cells Alamar Blue” value was 89.2 ± 4.8 percentage of controls.

These compounds were tested on A549 cells (assay: Cytotoxicity against A549 cells, Alamar Blue). Details: Homo sapiens, A549, 65 h; Supplementary Table 1; compound 0.5 mM; percentage of controls (n=1).
Assay type: cell-based
How it was run: as §1
`CNCc1cccc(-c2cccnc2)c1` [compound 606, N‐methyl‐N‐(3‐pyridin‐3‐ylbenzyl)amine] was tested, and the viability at 500 µM was 69.8%. `CNCc1ccc(-c2ccccn2)cc1` [compound 607, N‐methyl‐N‐(4‐pyridin‐2‐ylbenzyl)amine] was tested, and the viability at 500 µM was 71.5%. `O=C(O)c1ccc(-c2ccccc2)nc1` [compound 610, 6‐phenylnicotinic acid] gave a viability at 500 µM of 125%. `O=C(O)c1cccc(-c2ccccn2)c1` [compound 611, 3‐pyrid‐2‐ylbenzoic acid] gave a viability at 500 µM of 73.9%. With `O=C(O)c1ccccc1-c1cccnc1` [compound 613, 2‐pyrid‐3‐ylbenzoic acid] the viability at 500 µM was 59.8%. Compound `CNCc1ccccc1-c1cccs1` [compound 646, N‐methyl‐N‐(2‐thien‐2‐ylbenzyl)amine] has a viability at 500 µM of 66.9%. For `CN1CCN(Cc2ccccc2N)CC1` [compound 670, 2‐[(4‐methylpiperazin‐1‐yl)methyl]aniline], the viability at 500 µM was 121%.

Same assay, conditions: Supplementary Table 1; compound 0.5 mM; percentage of controls (n=1)
For `CCOC(=O)c1c(N)sc(C)c1C` [compound 617, ethyl 2‐amino‐4,5‐dimethylthiophene‐3‐carboxylate], the “A549 Cells Alamar Blue” value was 75.2 percentage of controls. In the case of `CNCc1cc(-c2ccccc2)nn1C` [compound 631, N‐methyl‐N‐[(1‐methyl‐3‐phenyl‐1H‐pyrazol‐5‐yl)methyl]amine], the “A549 Cells Alamar Blue” value is reported as 100.2 percentage of controls. `COC(=O)c1cccc(CN)c1.Cl` [compound 632, 3‐Aminomethylbenzoic acid methyl ester hydrochloride] was tested, and the “A549 Cells Alamar Blue” value was 107.3 percentage of controls. For `N#CCOc1ccc(C(F)(F)F)cn1` [compound 634, 2‐{[5‐(trifluoromethyl)‐2‐pyridyl]oxy}acetonitrile], the “A549 Cells Alamar Blue” value was 87.2 percentage of controls. `CNCc1c(-c2ccccc2)noc1C` [compound 637, N‐methyl‐N‐[(5‐methyl‐3‐phenylisoxazol‐4‐yl)methyl]amine] was tested, and the “A549 Cells Alamar Blue” value was 112.6 percentage of controls. `Cc1cc(C(=O)O)c2cc(F)ccc2n1` [compound 660, 6‐fluoro‐2‐methyl‐4‐quinolinecarboxylic acid] was tested, and the “A549 Cells Alamar Blue” value was 146.9 percentage of controls. For `Cc1nc(-c2ccccc2)c(CO)s1` [compound 666, (2‐methyl‐4‐phenyl‐1,3‐thiazol‐5‐yl)methanol], the “A549 Cells Alamar Blue” value was 113.4 percentage of controls. For `Cc1nc(-c2ccc(CO)cc2)cs1` [compound 667, [4‐(2‐methyl‐1,3‐thiazol‐4‐yl)phenyl]methanol], the “A549 Cells Alamar Blue” value was 103.8 percentage of controls. In the case of “(Piperidino‐3‐pyridinyl)methanol [compound 569]”, the “A549 Cells Alamar Blue” value is reported as 106.4 percentage of controls.
